Data reported in ChEMBL document CHEMBL4725262, “Potent antiviral activity of novel multi-substituted 4-anilinoquin(az)olines” (Bioorg Med Chem Lett, 2020).

Tests used:
dengue virus type 2 [1] = assay: Antiviral activity against DENV2 New Guinea C strain infected in Huh7 cells after 48 hrs by renilla luciferase assay; type: functional, organism-based, Huh-7; conditions: for EC90: Huh-7, time 48 hrs
[2] = Cytotoxicity against human Huh-7 cells infected with DENV2 by alamar blue assay; type: cell-based
dengue virus type 2 [3] = assay: Potency index, ratio of erlotinib EC50 to compound EC50 for antiviral activity against DENV2 New Guinea C strain infected in Huh7 cells after 48 hrs by renilla luciferase assay; type: functional, Huh-7
[4] = Selectivity index, ratio of CC50 for human Huh7 cells to EC50 for DENV2 New Guinea C; type: toxicity; conditions: read-out: Ratio CC50/EC50
[5] = Dengue virus, New Guinea C, Huh-7, 48 h

| SMILES | EC50 (dengue virus type 2 [1]; [5]) | CC50 [2] | Ratio EC50 (dengue virus type 2 [3]) | EC90 (dengue virus type 2 [1]; Dengue virus, New Guinea C) | selectivity ratio [4] | EC50 (dengue virus type 2 [1]; huh-7) |
| --- | --- | --- | --- | --- | --- | --- |
| COc1cc(Nc2cc(C)nc3cc(C(F)(F)F)ccc23)cc(OC)c1OC | > 10 µM | > 10 µM |  |  |  |  |
| COc1cc(Nc2c(C#N)cnc3cc(I)ccc23)cc(OC)c1OC | 4.7 µM | > 10 µM |  |  |  |  |
| COc1cc(Nc2cc(C)nc3ccccc23)cc(OC)c1OC | 8 µM | > 10 µM |  |  |  |  |
| COc1cc(Nc2ccnc3ccc(I)cc23)cc(OC)c1OC | 0.82 µM | > 10 µM |  |  |  |  |
| COc1cc(Nc2ccnc3cc(Cl)ccc23)cc(OC)c1OC | > 10 µM | > 10 µM |  |  |  |  |
| CCN(CC)c1ccc(Oc2ccc(-c3[nH]c4cccc(F)c4c(=O)c3C)cc2F)cc1 | 0.007 µM |  |  |  |  |  |
| COc1cc(Nc2ccnc3c(C)cccc23)cc(OC)c1OC | > 10 µM | > 10 µM |  |  |  |  |
| COc1cc(Nc2ccnc3cc(F)c(F)cc23)cc(OC)c1OC | 1 µM | 5.5 µM |  |  |  |  |
| COc1cc(Nc2ccnc3ccc(C#N)cc23)cc(OC)c1OC | 0.76 µM | > 10 µM |  |  |  |  |
| COc1cc(Nc2ccnc3ccc(S(C)(=O)=O)cc23)cc(OC)c1OC | 0.84 µM | > 10 µM |  |  |  |  |
| COc1cc(Nc2ccnc3ccccc23)cc(OC)c1OC | 8.2 µM | > 10 µM |  |  |  |  |
| COc1cc(Nc2cc(C)nc3ccc(Br)cc23)cc(OC)c1OC | 0.28 µM | 2.5 µM | >20 | 0.53 µM | 10 |  |
| COc1cc(Nc2c(C#N)cnc3cc(Br)ccc23)cc(OC)c1OC | > 10 µM | > 10 µM |  |  |  |  |
| COc1cc(Nc2ccnc3ccc(C(C)(C)C)cc23)cc(OC)c1OC | 7.4 µM | > 10 µM |  |  |  |  |
| COc1cc(N(C)c2ccnc3ccc(C(F)(F)F)cc23)cc(OC)c1OC | 10 µM | > 10 µM |  |  |  |  |
| COc1ccc2c(Nc3cc(OC)c(OC)c(OC)c3)ncnc2c1 | 2.7 µM | > 10 µM | 2 |  |  |  |
| COc1cc(Nc2ccnc3ccc(C(F)(F)F)cc23)cc(OC)c1OC | 0.59 µM | > 10 µM |  |  |  |  |
| COc1cc(Nc2ncnc3ccc(F)cc23)cc(OC)c1OC | > 10 µM | > 10 µM |  |  |  |  |
| COc1cc(Nc2ncnc3ccc(C#N)cc23)cc(OC)c1OC | 3.7 µM | > 10 µM |  |  |  |  |
| C#Cc1cccc(Nc2ncnc3cc(OCCOC)c(OCCOC)cc23)c1 [ERLOTINIB] | 6.5 µM |  |  |  |  |  |
| COc1cc(Nc2ncnc3ccccc23)cc(OC)c1OC | 2.8 µM | > 10 µM | 2 |  |  |  |
| COc1cc(Nc2c(C#N)cnc3ccc(Cl)cc23)cc(OC)c1OC | 1.3 µM | > 10 µM |  |  |  |  |

| SMILES | EC50 (dengue virus type 2 [1]; [5]) | CC50 [2] | Ratio EC50 (dengue virus type 2 [3]) | EC90 (dengue virus type 2 [1]; Dengue virus, New Guinea C) | selectivity ratio [4] | EC50 (dengue virus type 2 [1]; huh-7) |
| --- | --- | --- | --- | --- | --- | --- |
| COc1cc(Nc2c(C#N)cnc3ccc(I)cc23)cc(OC)c1OC | 0.079 µM | > 10 µM | >80 | 0.125 µM |  |  |
| COc1cc(Nc2ncnc3ccc(C)cc23)cc(OC)c1OC | > 10 µM | > 10 µM |  |  |  |  |
| COc1cc2nccc(Nc3cc(OC)c(OC)c(OC)c3)c2cc1OC | > 10 µM | > 10 µM |  |  |  |  |
| COc1cc(Nc2ncnc3cc(Br)ccc23)cc(OC)c1OC | 2 µM | > 10 µM |  |  |  |  |
| COc1ccc2c(Nc3cc(OC)c(OC)c(OC)c3)cc(C)nc2c1 | > 10 µM | > 10 µM |  |  |  |  |
| Clc1ccc(-c2ccc(-c3nc(NCc4cccnc4)nc4ccccc34)s2)cc1 | 0.07 µM |  |  |  |  |  |
| COc1cc(Nc2ccnc3cc(I)ccc23)cc(OC)c1OC | 3.6 µM | > 10 µM | 2 |  |  |  |
| COc1ccc2ncnc(Nc3cc(OC)c(OC)c(OC)c3)c2c1 | > 10 µM | > 10 µM |  |  |  |  |
| COc1ccc2ncc(C#N)c(Nc3cc(OC)c(OC)c(OC)c3)c2c1 | 3.1 µM | > 10 µM |  |  |  |  |
| COc1cc(Nc2ncnc3cc(C(F)(F)F)ccc23)cc(OC)c1OC | 5.1 µM | > 10 µM |  |  |  |  |
| COc1cc(Nc2cc(C)nc3ccc(F)cc23)cc(OC)c1OC | 2.3 µM | > 10 µM |  |  |  |  |
| COc1cc(Nc2c(C#N)cnc3ccccc23)cc(OC)c1OC | > 10 µM | > 10 µM |  |  |  |  |
| COc1cc(Nc2ccnc3ccc(F)cc23)cc(OC)c1OC | 5.2 µM | > 10 µM |  |  |  |  |
| COc1cc(-c2cnc3c(N4C[C@@H](C)O[C@@H](C)C4)snc3c2)ccc1N | 0.87 µM |  |  |  |  |  |
| COc1cc2nc(C)cc(Nc3cc(OC)c(OC)c(OC)c3)c2cc1OC | 10 µM | > 10 µM |  |  |  |  |
| COc1cc(Nc2ccnc3cc(C(F)(F)F)ccc23)cc(OC)c1OC | 6.8 µM | > 10 µM |  |  |  |  |
| COc1cc(Nc2ncnc3cc(F)ccc23)cc(OC)c1OC | > 10 µM | > 10 µM |  |  |  |  |
| COc1ccc2c(Nc3cc(OC)c(OC)c(OC)c3)ccnc2c1 | > 10 µM | > 10 µM |  |  |  |  |
| COc1ccc2c(Nc3cc(OC)c(OC)c(OC)c3)c(C#N)cnc2c1 | > 10 µM | > 10 µM |  |  |  |  |
| COc1ccc2nccc(Nc3cc(OC)c(OC)c(OC)c3)c2c1 | 0.75 µM | > 10 µM | 8 |  |  |  |
| COc1cc(Nc2ncnc3cc(I)ccc23)cc(OC)c1OC | 2.9 µM | 5.8 µM |  |  |  |  |
| COc1cc(Nc2ncnc3cc(Cl)ccc23)cc(OC)c1OC | 6.1 µM | > 10 µM |  |  |  |  |

| SMILES | EC50 (dengue virus type 2 [1]; [5]) | CC50 [2] | Ratio EC50 (dengue virus type 2 [3]) | EC90 (dengue virus type 2 [1]; Dengue virus, New Guinea C) | selectivity ratio [4] | EC50 (dengue virus type 2 [1]; huh-7) |
| --- | --- | --- | --- | --- | --- | --- |
| COc1cc2ncc(C#N)c(Nc3cc(OC)c(OC)c(OC)c3)c2cc1OC | 5.5 µM | > 10 µM |  |  |  |  |
| COc1cc(Nc2cc(C)nc3ccc(C(F)(F)F)cc23)cc(OC)c1OC | 0.91 µM | > 10 µM |  |  |  |  |
| COc1cc(Nc2ncnc3ccc(Br)cc23)cc(OC)c1OC | 0.97 µM | > 10 µM |  |  |  |  |
| COc1ccc(-c2cnc3[nH]cc(C#Cc4cccnc4)c3c2)cc1OC | 0.72 µM |  |  |  |  |  |
| COc1cc(Nc2ncnc3ccc(S(C)(=O)=O)cc23)cc(OC)c1OC | > 10 µM | > 10 µM |  |  |  |  |
| COc1cc2ncnc(Nc3cc(OC)c(OC)c(OC)c3)c2cc1OC | 6.6 µM | > 10 µM |  |  |  |  |
| COc1ccc2nc(C)cc(Nc3cc(OC)c(OC)c(OC)c3)c2c1 | 10 µM | > 10 µM |  |  |  |  |
| COc1cc(Nc2ccnc3cc(F)ccc23)cc(OC)c1OC | 4.1 µM | > 10 µM |  |  |  |  |
| COc1cc(Nc2c(C#N)cnc3cc(Cl)ccc23)cc(OC)c1OC | > 10 µM | > 10 µM |  |  |  |  |
| COc1cc(Nc2c(C#N)cnc3ccc(S(C)(=O)=O)cc23)cc(OC)c1OC | > 10 µM | > 10 µM |  |  |  |  |
| COc1cc(Nc2ncnc3cc(F)c(F)cc23)cc(OC)c1OC | > 10 µM | > 10 µM | >10 |  |  |  |
| COc1cc(Nc2ccnc3cc(Br)ccc23)cc(OC)c1OC | 8.4 µM | > 10 µM |  |  |  |  |
| COc1cc(Nc2ncnc3ccc(C(F)(F)F)cc23)cc(OC)c1OC | > 10 µM | > 10 µM |  |  |  |  |
| COc1cc(Nc2ncnc3cc(C#N)ccc23)cc(OC)c1OC | 1.4 µM | > 10 µM |  |  |  |  |
| COc1cc(Nc2ccnc3ccc(Br)cc23)cc(OC)c1OC | 0.08 µM | > 10 µM | >80 |  |  | 0.122 µM |
| COc1cc(Nc2ccnc3cc(C#N)ccc23)cc(OC)c1OC | 3.3 µM | > 10 µM |  |  |  |  |
| CC(C)(C)Oc1cccc2nc(N)nc(N)c12 | 0.0028 µM |  |  |  |  |  |
| COc1cc(Nc2ncnc3ccc(I)cc23)cc(OC)c1OC | 1 µM | > 10 µM |  |  |  |  |
| COc1cc(Nc2ncnc3ccc(Cl)cc23)cc(OC)c1OC | 1 µM | > 10 µM | >10 |  |  |  |
| COc1cc(Nc2c(C#N)cnc3ccc(Br)cc23)cc(OC)c1OC | 0.082 µM | > 10 µM | >80 | 0.151 µM |  |  |
| COc1cc(Nc2ccnc3ccc(Cl)cc23)cc(OC)c1OC | 0.52 µM | > 10 µM |  |  |  |  |
